According to paper PMC5577134 (Nature Communications, 2017):
Values after ≈ are worked out from the molar mass of the structure shown. Where two headings read alike, the source gives them in different places. Marks after values point to notes of the source that are not given here. *1 amine or outer side, *2 acyl side, *3 side chain or, on linkers, in order; H or OH if unused. Where a SMILES comes first, the peptide text is derived from it. [ ]: non-standard residue; d: D form. ξ: configuration not given here. Trp(1-(1,1-Me2-allyl)) = C=CC(C)(C)n1cc(C[C@H](N)C(=O)O)c2ccccc21; NMeGlu(4S-Me) = C[C@@H](C[C@@H](C(=O)[*:2])N(C)[*:1])C(=O)[*:3]; Tyr(3-NO2) = N[CH](Cc1ccc(O)c([N+](=O)[O-])c1)C(=O)O; X1 = CC(C)(C1CO1)n1cc(CC(N[*:1])C(=O)[*:2])c2ccccc21; X2 = CC(CC(C(=O)[*:2])N(C)[*:1])C(=O)O; Gly(E-crotyl) = C/C=C/C[C@H](N)C(=O)O; ξNle(4,5-dehydro) = CC=CCC(N)C(=O)O; NMeL = CN[CH](CC(C)C)C(=O)O

How the values were obtained:
M. tuberculosis H37Rv = experiment: Anti-TB broth dilution MIC; type: cell-based, Mycobacterium tuberculosis
[1] = test system: Huvec-12, normal human umbilical vein endothelial cell line; experiment: MTT cytotoxicity, normal cell line control; type: cell-based; settings: Huvec-12 normal cell line
Method: (§1) Compounds 1–8 were evaluated for cytotoxicity using HeLa, HepG2, A549, CNE2, and MCF7 cell lines using a previously reported MTT method. The L02 and Huvec-12 cell lines were used as normal cell line controls. All these cell lines were obtained from American Type Culture Collection (ATCC) and cultured according to ATCC recommendations. Cell lines were checked for mycoplasma and profiled via short tandem repeat profiling to confirm their identity by the supplier. All experiments were performed in triplicate with doxorubicin and cis-platinum as control agents.

[2] = test system: L02, normal human hepatic cell line; experiment: MTT cytotoxicity, normal cell line control; type: cell-based
Method: as §1

[3] = test system: Escherichia coli ATCC 25922; experiment: Antibacterial broth dilution MIC; type: cell-based
Method: (§2) To determine the antibacterial activities of these eight compounds (1–8), a preliminary screening of their antibacterial activities against a panel of Gram-positive and Gram-negative bacteria[6]–[8], M. smegmatis MC^2 155 and M. tuberculosis H37Rv, was conducted using a broth dilution method, [59]. Compounds 1–8 were dissolved in dimethylsulfoxide (DMSO) to give 3200 μg mL^−1 stock solutions. The stock solutions were then serially diluted to concentrations of 0.0625–128 μg mL^−1 with MH broth or 7H9 broth (added with 0.2% glycerol, 0.05% Tween 80). DMSO in MH broth or 7H9 broth was used as a negative control, and broth-containing bacteria was used as positive control. All experiments were performed in triplicate with kanamycin and rifampicin as control agents.

Micrococcus luteus SC-1 = experiment: Antibacterial broth dilution MIC; type: cell-based
Method: as §2

[4] = test system: Enterococcus faecalis ATCC29212; experiment: Antibacterial broth dilution MIC; type: cell-based
Method: as §2

[5] = test system: Staphylococcus aureus ATCC29213; experiment: Antibacterial broth dilution MIC; type: cell-based
Method: as §2

[6] = test system: Acinetobacter baumanii ATCC19606; experiment: Antibacterial broth dilution MIC; type: cell-based
Method: as §2

MRSA shha-01 = experiment: microbe, parasite or virus in culture; type: cell-based; settings: Staphylococcus aureus
[7] = test system: CNE2, human nasopharyngeal carcinoma cell line; experiment: MTT cytotoxicity; type: cell-based
Method: as §1

[8] = test system: MCF7, human breast adenocarcinoma cell line; experiment: MTT cytotoxicity; type: cell-based
Method: as §1

[9] = test system: A549, human lung cancer cell line; experiment: MTT cytotoxicity; type: cell-based
Method: as §1

[10] = test system: HepG2, human hepatocellular carcinoma cell line; experiment: MTT cytotoxicity; type: cell-based
Method: as §1

[11] = test system: HeLa, human cervical carcinoma cell line; experiment: MTT cytotoxicity; type: cell-based
Method: as §1

M. smegmatis MC^2 155 = experiment: Antimycobacterial broth dilution MIC; type: cell-based, Mycobacterium smegmatis
Method: as §2

[12] = test system: Mycobacterium tuberculosis H37Rv; set-up: method as in earlier work; settings: M. tuberculosis H37Rv; cited from earlier work
[13] = Epimerization/interconversion of hemiaminal isomers followed by HPLC; type: physicochemical; settings: non-aqueous solvents
Text: An interesting feature we identified during HPLC studies is that compounds 7 and 6 epimerize/interconvert in […] solvents (e.g., MeOH or CH3CN); this interconversion also was noted under neat conditions following periods of long-term storage. […] The possibility interchange of these two pairs of compounds was postulated (Supplementary Fig. 34B). […] It is indeed interesting to consider that cyclic hemiaminal installation in ilamycins C1, C2, E1, and E2 is likely reflective of a transient C33 aldehyde and that the αOH orientation is preferred; presumably this is driven to some extent by the fixed stereochemical orientations at C24 and C32 in each respective case (Fig. 3f). By virtue of this interconversion chemistry it is significant to note that assays carried out with these agents likely involved the use of isomeric mixtures of 6/7 and 3/4 and no one specific isomer.

[14] = test system: human tumor cell lines and normal human cell lines; experiment: MTT cytotoxicity, summary over human tumor and normal cell lines; type: cell-based; settings: HeLa, HepG2, and A549 cell lines, read-out: IC50 values, range over cell lines
Method: as §1

[15] = Mycobacterium tuberculosis, H37RV, broth dilution, triplicate, n = 3
[16] = Acinetobacter baumannii, ATCC19606
[17] = Mycolicibacterium smegmatis, MC^2155, read-out: MIC

| Structure (SMILES) | MIC (M. tuberculosis H37Rv; [15]) [µM] | IC50 ([1]; Homo sapiens, Endothelial cell) [µM] | IC50 ([2]; Homo sapiens) [µM] | MIC ([3]; ATCC25922) [µM] | MIC (Micrococcus luteus SC-1; SC1) [µM] | MIC [4] [µM] | MIC [5] [µM] | MIC [6, 16] [µM] | MIC (MRSA shha-01) [µM] | IC50 ([7]; Homo sapiens, CNE-2) [µM] | IC50 ([8]; Homo sapiens) [µM] | IC50 ([9]; Homo sapiens) [µM] | IC50 ([10]; Homo sapiens) [µM] | IC50 ([11]; Homo sapiens) [µM] | MIC (M. smegmatis MC^2 155; [17]) [µM] | also measured |
| --- | --- | --- | --- | --- | --- | --- | --- | --- | --- | --- | --- | --- | --- | --- | --- | --- |
| CC=CCC1NC(=O)C(CC(C)C)NC(=O)C(CC(C)C)N(C)C(=O)C(C)NC(=O)C(Cc2ccc(O)c([N+](=O)[O-])c2)NC(=O)C(CC(C)C)N(C)C(=O)C(Cc2cn(C(C)(C)C3CO3)c3ccccc23)NC1=O (stereo not drawn) [compound 2, ilamycin B2] (cyclo([ξNle(4,5-dehydro)][X1][NMeL][Tyr(3-NO2)]A[NMeL]L); configuration not given here) | 2.4 (≈ 2.47 µg/mL) | 18.6 | 24.6 | > 124 | > 124 | > 124 | > 124 | 124 (≈ 128 µg/mL) | > 124 | 24.5 | 17.4 | 13.8 | 8.9 | 7.1 | > 124 |  |
| NC[C@H]1O[C@H](O[C@H]2[C@H](O)[C@@H](O[C@H]3O[C@H](CO)[C@@H](O)[C@H](N)[C@H]3O)[C@H](N)C[C@@H]2N)[C@H](O)[C@@H](O)[C@@H]1O [Kanamycin, reference compound] |  |  |  |  |  |  | 0.85 (≈ 0.412 µg/mL) |  |  |  |  |  |  |  |  | MIC [3]: 1.7 µM (≈ 0.824 µg/mL); MIC (Micrococcus luteus SC-1): 0.85 µM (≈ 0.412 µg/mL); MIC ([6]; Acinetobacter baumanii ATCC19606): 3.4 µM (≈ 1.65 µg/mL); MIC (M. smegmatis MC^2 155): 1.7^a μM |
| CC=CCC1NC(=O)C(CC(C)C)N2C(=O)C(CC(C)C2O)N(C)C(=O)C(C)NC(=O)C(Cc2ccc(O)c([N+](=O)[O-])c2)NC(=O)C(CC(C)C)N(C)C(=O)C(Cc2cn(C(C)(C)C3CO3)c3ccccc23)NC1=O (stereo not drawn) [compound 3, ilamycin C1] |  |  |  |  |  |  |  |  |  |  |  |  |  |  |  | MIC [12]: < 1.3 µg/mL |
| N.N.[Cl][Pt][Cl] [Cis, Cisplatin, reference compound] |  |  |  |  |  |  |  |  |  |  |  |  |  |  |  | IC50 [1]: 34.5 µM; IC50 [2]: 22.7 µM; IC50 [7]: 12.9 µM; IC50 [8]: 14.1 µM; IC50 [9]: 9.3 µM; IC50 [10]: 2.5 µM; IC50 [11]: 5.2 µM |
| C=CC(C)(C)n1cc(C[C@@H]2NC(=O)[C@H](C/C=C/C)NC(=O)[C@H](CC(C)C)NC(=O)[C@H](CC(C)C)N(C)C(=O)[C@H](C)NC(=O)[C@H](Cc3ccc(O)c([N+](=O)[O-])c3)NC(=O)[C@H](CC(C)C)N(C)C2=O)c2ccccc21 [compound 1, ilamycin B1] (cyclo(A[NMeL]L[Gly(E-crotyl)][Trp(1-(1,1-Me2-allyl))][NMeL][Tyr(3-NO2)])) | 98.9 (≈ 100 µg/mL) | > 50 | > 50 | > 126 | > 126 | > 126 | > 126 | 126 (≈ 128 µg/mL) | > 126 | > 50 | > 50 | > 50 | > 50 | > 50 | > 126 |  |
| C=CC(C)(C)n1cc(C[C@@H]2NC(=O)[C@H](C/C=C/C)NC(=O)[C@H](CC(C)C)N3C(=O)[C@H](C[C@H](C)[C@H]3O)N(C)C(=O)[C@H](C)NC(=O)[C@H](Cc3ccc(O)c([N+](=O)[O-])c3)NC(=O)[C@H](CC(C)C)N(C)C2=O)c2ccccc21 [compound 6, ilamycin E1] |  |  |  |  |  |  |  |  |  |  |  |  |  |  |  | stability [13]: reasonably stable |
| CO[C@H]1/C=C/O[C@@]2(C)Oc3c(C)c(O)c4c(O)c(c(/C=N/N5CCN(C)CC5)c(O)c4c3C2=O)NC(=O)/C(C)=C\C=C\[C@H](C)[C@H](O)[C@@H](C)[C@@H](O)[C@@H](C)[C@H](OC(C)=O)[C@@H]1C [Rif, Rifampin, reference compound] |  |  |  |  |  |  |  |  |  |  |  |  |  |  |  | MIC (M. tuberculosis H37Rv; Mycobacterium tuberculosis, H37RV, broth dilution, triplicate, n = 3, read-out: MIC): 0.3 µM (≈ 0.247 µg/mL) |
| C=CC(C)(C)n1cc(C[C@@H]2NC(=O)[C@H](C/C=C/C)NC(=O)[C@H](CC(C)C)NC(=O)[C@H](C[C@H](C)C(=O)O)N(C)C(=O)[C@H](C)NC(=O)[C@H](Cc3ccc(O)c([N+](=O)[O-])c3)NC(=O)[C@H](CC(C)C)N(C)C2=O)c2ccccc21 [compound 8, ilamycin F] (cyclo(A[NMeGlu(4S-Me)]L[Gly(E-crotyl)][Trp(1-(1,1-Me2-allyl))][NMeL][Tyr(3-NO2)])) | 1.2 (≈ 1.25 µg/mL) | > 50 | > 50 | > 123 | > 123 | > 123 | > 123 | 123 (≈ 128 µg/mL) | > 123 | > 50 | > 50 | > 50 | > 50 | > 50 | 30.7 (≈ 32 µg/mL) |  |
| CC=CCC1NC(=O)C(CC(C)C)N2C(=O)C(CC(C)C2O)N(C)C(=O)C(C)NC(=O)C(Cc2ccc(O)c([N+](=O)[O-])c2)NC(=O)C(CC(C)C)N(C)C(=O)C(Cc2cn(C(C)(C)C3CO3)c3ccccc23)NC1=O (stereo not drawn) [3/4] | 9.6 (≈ 10 µg/mL) | 33.8 | 7.4 | > 123 | > 123 | > 123 | > 123 | 123 (≈ 128 µg/mL) | > 123 | 6.8 | 4.5 | 3.5 | 3.2 | 3.3 | 0.12 (≈ 0.125 µg/mL) | IC50 [14]: 3.2 to 6.2 µM |
| C=CC(C)(C)n1cc(C[C@@H]2NC(=O)[C@H](C/C=C/C)NC(=O)[C@H](CC(C)C)N3C(=O)[C@H](C[C@H](C)C3O)N(C)C(=O)[C@H](C)NC(=O)[C@H](Cc3ccc(O)c([N+](=O)[O-])c3)NC(=O)[C@H](CC(C)C)N(C)C2=O)c2ccccc21 (stereo partly drawn) [6/7] | 0.0098 (≈ 0.0101 µg/mL) | 18.6 | 14.9 | > 125 | > 125 | > 125 | > 125 | 125 (≈ 128 µg/mL) | > 125 | 14.9 | 3.9 | 6.2 | 4.9 | 3.9 | 30.7 (≈ 31.5 µg/mL) | fold superior to positive control rifampin (MIC) (M. tuberculosis H37Rv): 30 fold; MIC (M. tuberculosis H37Rv; Mycobacterium tuberculosis, H37RV): ~0.0098 µM (≈ 0.0101 µg/mL); MIC (M. tuberculosis H37Rv; read-out: MIC): 0.0098 µM (≈ 0.0101 µg/mL); IC50 [14]: 3.2 to 6.2 µM |
| COc1cccc2c1C(=O)c1c(O)c3c(c(O)c1C2=O)C[C@@](O)(C(=O)CO)C[C@@H]3O[C@H]1C[C@H](N)[C@H](O)[C@H](C)O1 [Dox, Doxorubicin, reference compound] |  | 34.3 | 13 |  |  |  |  |  |  | 3.6 | 3.4 | 3.4 | 1.2 | 0.98 |  |  |
| CC=CCC1NC(=O)C(CC(C)C)NC(=O)C(CC(C)C(=O)O)N(C)C(=O)C(C)NC(=O)C(Cc2ccc(O)c([N+](=O)[O-])c2)NC(=O)C(CC(C)C)N(C)C(=O)C(Cc2cn(C(C)(C)C3CO3)c3ccccc23)NC1=O (stereo not drawn) [compound 5, ilamycin D] (cyclo([X2]L[ξNle(4,5-dehydro)][X1][NMeL][Tyr(3-NO2)]A); configuration not given here) | 1.2 (≈ 1.27 µg/mL) | > 50 | > 50 | > 121 | > 121 | > 121 | > 121 | 121 (≈ 128 µg/mL) | > 121 | > 50 | > 50 | > 50 | > 50 | > 50 | 30.3 (≈ 32.1 µg/mL) |  |
